Data from PMC4142213 (Nature, 2014).

System: DIO mice
Assay: OGTT with co-administration of 6bK and sitagliptin
Format: in vivo, mouse
Conditions: OGTT 3.0 g kg^-1, sitagliptin 4 mg kg^-1 oral, 6bK 40 mg kg^-1

Structure (SMILES): N[C@@H](CC(=O)N1CCn2c(nnc2C(F)(F)F)C1)Cc1cc(F)c(F)cc1F [sitagliptin]
- reduction of blood glucose profile area compared to vehicle: 60–64%
